Source: patent US10766855B2, “Hydroxamate triterpenoid derivatives” (VIVACELL BIOTECHNOLOGY ESPANA S.L., priority 2016, dated 2020)

Tests used:
[1] = tested on: Nrf2; assay: Nrf2 activation/inhibition in HaCaT-ARE-Luc cells; assay type: cell-based
[2] = tested on: 3NP-lesioned mice; assay: 3-NP induced Huntington's disease model in mice; assay type: in vivo, mouse
Description: Striatal neurodegeneration was induced in 16-week-old C57BL/6 male mice (Harlan Ibérica, Barcelona, Spain) by six intraperitoneal (i.p.) injections of 3-nitropropionic acid (3NP) (30 mg/kg; one injection each every 12 h prepared in PBS). 3NP-treated animals and the non-lesioned control group (injected with PBS) were used for pharmacological studies with Betulinic acid (30 mg/Kg) and compound VII (30 mg/Kg). Treatments consisted of 5 i.p. injections every 24 h with […] the test compounds or vehicle (10% DMSO plus 6.2% Tween 20 in saline buffer), with the first injection 24 h prior the first 3NP injection and the rest of doses 30 min before the injections of 3NP. Mice were subjected to behavioral tests for determining their neurological status. General locomotor activity, the hindlimb clasping and dystonia, and the truncal dystonia were evaluated. All behavioral tests were conducted prior to drug injections to avoid acute effects of the compounds under investigation. […] were euthanized 12 h after the last injection of 3NP. Once euthanized, animals were dissected and their brains were rapidly removed. The right hemisphere was used to dissect the striatum, which was quickly frozen in RNAlater (Sigma-Aldrich, Germany) to analyzed inflammatory markers were by Real Time PCR. The left hemisphere was fixed in fresh 4% paraformaldehyde (in 0.1M phosphate buffered-saline) for 48 hours at 4° C. and embedded in paraffin wax for histological analysis.
For this test, intoxicated mice with 3-Nitropropionic acid (3-NP) were used for determining microglia activation and astrogliosis including a Control with non-intoxicated mice (3NP, 3NP+BA and 3NP+Compound VII). Iba-1 and glial fibrillary acidic protein (GFAP) expression were determined by immunostaining of brain sections through the different group of mice. Quantification of the different markers was performed with Image J software.
Total RNA was isolated from striata (3NP model) using RNeasy Lipid Tissue Mini Kit (Qiagen, GmbH). The total amount of RNA extracted was quantitated by spectrometry at 260 nm and its purity from the ratio between the absorbance values at 260 and 280 nm. Genomic DNA was removed to eliminate DNA contamination. Single-stranded complementary DNA was synthesized from up to 1 μg of total RNA (pool from at least 3 animals per group) using iScript™ cDNA Synthesis Kit (Bio-Rad, Hercules, Calif., USA). The reaction mixture was kept frozen at −20° C. until enzymatic amplification. The iQ™ SYBR Green Supermix (Bio-Rad) was used to quantify mRNA levels for COX-2, IL-6, IL-1β, and iNOS. […] Expression levels were calculated using the 2^−ΔΔCt method.

[3] = tested on: NF-κB; assay: NF-κB inhibition in NIH-3T3-KBF-Luc cells stimulated with TNFα; assay type: cell-based; conditions: TNFα 30 ng/ml, 6 h
Description: To further study the target selectivity of the compounds described in the present invention the effect of the natural triterpenoids (OA; BA, UA, and MA), compounds II to XV of Formula (I) disclosed in present invention, and of comparative compound CDDO-Me on NF-κB inhibition, STAT-3 inhibition, Nrf2 activation and TGR5 activation was analyzed. For this study cell lines NIH-3T3-KBF-Luc, HeLa-STAT3-Luc, HaCaT-ARE-Luc and CHO-TGR5-CRE-luc were used respectively. The NIH3T3-KBF-Luc cell line stably transfected with the plasmid KBF-Luc plasmid, which contains three copies of NF-κB binding site (from major histocompatibility complex promoter), fused to a minimal simian virus 40 promoter driving the luciferase gene. Cells (1×10^4/well) were seeded in 96-well plates, treated with increasing concentrations of the compounds II to XV for 15 min and then stimulated with 30 ng/ml TNFα. After 6 h the luciferase activity in the cell lysates was measured as indicated above.

[4] = tested on: STHdhQ7/Q7 and STHdhQ111/Q111 striatal cells; assay: 3-NP-induced cytotoxicity in striatal Q7 and Q111 cells (YOYO-1); assay type: cell-based, mouse; conditions: 6 h pre-treatment, 3-NP 10 mM 24 h; compound VII increasing concentrations, DFX 50 μM
Description: FIG. 8. Compound VII abrogates 3-NP toxicity in Q7 and […] striatal cells. Q7 and Q111 Striatal cells were pretreated with increasing concentrations of compound VII for 6 h and then exposed to 3-NP (10 mM) for an additional 24 h, after which YOYO-1 staining was used to investigate cell death. Cell death was determined using the IncuCyte HD software and the treatment with 3-NP alone in Q111 cells was considered as 100% of cell death.
To investigate whether HIF activation in striatal Q7 and Q111 cells is sufficient to protect striatal neurons (provide neuroprotection), the effect of compound VII on 3-NP induced death was examined. […]
STHdh^Q7/Q7 and STHdh^Q111/Q111 cells (10^4 cells/well in 96-well plates) were incubated with YOYO-1 (Life Technologies) and then treated with 3-NP (10 mM) and or DFX (50 μM) as a positive control for PHDs inhibition. […] The uptake of YOYO-1 by damaged cells correlates with the increase in YOYO-1 fluorescence. Treated cells are placed in an Incucyte FLR imaging system, and the YOYO-1 fluorescence is measured after 24 h of 3-NP treatment. Following the incubation period object counting analysis was performed using the Incucyte FLR software to calculate the total number of YOYO-1 fluorescence positive cells and total DNA containing objects (end point). […]

C=C(C)[C@@H]1CC[C@]2(C(=O)NO)CC[C@]3(C)[C@H](CC[C@@H]4[C@@]5(C)CC[C@H](O)C(C)(C)[C@@H]5CC[C@]43C)[C@@H]12 [Compound VII, (3β) 3-Hydroxy-N-hydroxy-lup-20(29)-en-28-amide]
IC50 [1]: > 50 µM | mRNA expression for COX-2, IL-1β, IL-6 and iNOS in striatum ([2]; 30 mg/kg, compared with 3NP+Vehicle): down regulated | clinical symptoms (behavioral score) induced by 3-NP intoxication ([2]; i.p., 30 mg/kg): clearly alleviated the clinical symptoms | reduction in Nissl-stained cells (neuronal death) in striatum caused by 3NP ([2]; i.p., 30 mg/kg): clearly prevented | 3NP-induced microgliosis (Iba1) and astrogliosis (GFAP) ([2]; i.p., immunohistochemistry): reduced 3NP-induced microgliosis and astrogliosis | IC50 [3]: > 50 µM | neuroprotection to 3-NP-induced cytotoxicity (cell death) [4]: clearly provided a significant level of neuroprotection
